Experiments:
human μ-opiate receptor = target: T1, human μ-opiate receptor (Homo sapiens, UniProt P35372); test: μ-opiate receptor binding assay with [3H] naloxone (WGA-SPA beads); settings: 1 μmol/l test substance, 1 nmol/l [3H] naloxone, CHO-K1 cell membranes expressing human μ-opiate receptor
T1 construct: purchased NEN, Zaventem, Belgium RB-HOM; host or cells: CHO-K1 cells (membrane preparation)
Experimental: The receptor affinity to the human μ-opiate receptor was determined in a homogeneous batch in microtitre plates. To this end, dilution series of the substituted indole derivative to be tested were incubated for 90 minutes at room temperature with a receptor membrane preparation (15-40 μg protein per 250 μl incubation batch) of CHO-K1 cells, which express the human μ-opiate receptor (RB—HOM receptor membrane preparation from NEN, Zaventem, Belgium), in the presence of 1 nmol/l of the radioactive ligand [^3H] naloxone (NET719, NEN, Zaventem, Belgium) and 1 mg of WGA-SPA beads (wheat germ agglutinin SPA beads from Amersham/Pharmacia, Freiburg, Germany) in a total volume of 250 μl. 50 mmol/l tris-HCl supplemented with 0.05 wt. % sodium azide and 0.06 wt. % bovine serum albumin were used as the incubation buffer. In order to determine the non-specific binding, 25 μmol/l of naloxone were also added. At the end of the ninety-minute incubation period the microtitre plates were centrifuged for 20 minutes at 1000 g and the radioactivity was measured in a β counter (Microbeta-Trilux, PerkinElmer Wallac, Freiburg, Germany). The percentage displacement of the radioactive ligand from its binding to the human μ-opiate receptor was determined at a test substance concentration of 1 μmol/l and stated as the percentage inhibition (% inhibition) of the specific binding. In some cases the percentage displacement due to differing concentrations of the compounds having the general formula I to be tested was used to calculate the IC50 inhibition concentrations which bring about a 50-percent displacement of the radioactive ligand. Ki values for the test substances were obtained by extrapolation using the Cheng-Prusoff equation.

ORL1 receptor = target: T2, ORL1 receptor (Homo sapiens, UniProt P41146); test: ORL1 receptor binding assay with 3H-nociceptin/orphanin FQ (WGA-SPA beads); settings: c=1 μM test substance; 0.5 nM 3H-nociceptin/orphanin FQ; membranes of recombinant CHO-ORL1 cells
T2 construct: expressed in transfected cells; host or cells: CHO (recombinant CHO-ORL1 cells), membranes
Experimental: Measurement of ORL1 Binding
The cyclohexane derivatives having the general formula I were investigated in a receptor binding assay with ^3H-nociceptin/orphanin FQ with membranes of recombinant CHO—ORL1 cells. This test system was conducted in accordance with the method described by Ardati et al. (Mol. Pharmacol., 51, 1997, p. 816-824). The concentration of ^3H-nociceptin/orphanin FQ in these tests was 0.5 nM. The binding assays were carried out with 20 μg amounts of membrane protein per 200 μl batch in 50 mM Hepes, pH 7.4, 10 mM MgCl2 and 1 mM EDTA. The binding to the ORL1 receptor was determined using 1 mg amounts of WGA-SPA beads (Amersham-Pharmacia, Freiburg, Germany), by incubation of the batch for one hour at room temperature and subsequent measurement in a Trilux scintillation counter (Wallac, Finland). The affinity is given in Table 1 as the nanomolar Ki value or in % inhibition at c=1 μM.

T2 sequence (P41146 whole entry): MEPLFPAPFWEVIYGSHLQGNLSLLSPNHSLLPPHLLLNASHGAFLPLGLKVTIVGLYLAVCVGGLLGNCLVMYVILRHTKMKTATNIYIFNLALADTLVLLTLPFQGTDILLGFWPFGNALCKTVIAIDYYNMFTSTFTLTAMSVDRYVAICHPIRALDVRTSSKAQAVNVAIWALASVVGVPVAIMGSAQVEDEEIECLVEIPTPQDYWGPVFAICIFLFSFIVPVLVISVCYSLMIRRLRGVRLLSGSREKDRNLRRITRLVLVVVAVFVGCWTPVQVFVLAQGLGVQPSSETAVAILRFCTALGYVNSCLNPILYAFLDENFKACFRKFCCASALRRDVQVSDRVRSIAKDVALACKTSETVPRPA
T1 sequence (P35372 whole entry): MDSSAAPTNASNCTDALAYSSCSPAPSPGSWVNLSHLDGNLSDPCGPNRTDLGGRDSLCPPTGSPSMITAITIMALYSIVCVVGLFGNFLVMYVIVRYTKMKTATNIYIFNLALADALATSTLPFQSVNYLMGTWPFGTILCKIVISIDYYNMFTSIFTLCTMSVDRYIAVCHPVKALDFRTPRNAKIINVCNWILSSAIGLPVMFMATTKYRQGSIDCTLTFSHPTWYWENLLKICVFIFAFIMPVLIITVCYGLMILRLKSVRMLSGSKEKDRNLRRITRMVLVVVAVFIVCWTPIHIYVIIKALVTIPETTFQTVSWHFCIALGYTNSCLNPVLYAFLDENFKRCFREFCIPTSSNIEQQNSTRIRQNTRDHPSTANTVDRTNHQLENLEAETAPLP

SMILES	inhibition at 1 µM (human μ-opiate receptor)	inhibition at 1 µM (ORL1 receptor)	% Inhibition (ORL1) at 1 μM (ORL1 receptor)	% Inhibition (μ) at 1 μM (human μ-opiate receptor)
CCCCC1(N(C)C)CCN(CCN(C)C(=O)CC(C)c2c[nH]c3ccccc23)CC1 (centres unmarked) [Example 58, N-(2-(4-Butyl-4-(dimethylamino)piperidin-1-yl)ethyl)-3-(1H-indol-3-yl)-N-methylbutanamide]	77%	20%		
CN(CCN1CCC(c2ccccc2)(N(C)C)CC1)Cc1ccc2cc[nH]c2c1 [Example 181, 1-(2-(((1H-indol-6-yl)methyl)(methyl)amino)ethyl)-N,N-dimethyl-4-phenylpiperidin-4-amine]	34%	96%		
CN(CCN1CCC(c2ccccc2)(N2CCCC2)CC1)Cc1ccc2[nH]ccc2c1 [Example 140, N-((1H-indol-5-yl)methyl)-N-methyl-2-(4-phenyl-4-(pyrrolidin-1-yl)piperidin-1-yl)ethanamine]	54%	17%		
COc1ccc2c(c1)c(CNCCN1CCC(c3cccs3)(N(C)C)CC1)c(C)n2Cc1ccccc1 [Example 78, 1-(2-((1-Benzyl-5-methoxy-2-methyl-1H-indol-3-yl)methylamino)ethyl)-N,N-dimethyl-4-(thiophen-2-yl)piperidin-4-amine]	93%	62%		
CN(C)C1(c2cccs2)CCN(C(=O)CC(NC(=O)C2CCCc3c2[nH]c2ccc(Cl)cc32)c2ccccc2)CC1 (centres unmarked) [Example 97, 6-chloro-N-(3-(4-(dimethylamino)-4-(thiophen-2-yl)piperidin-1-yl)-3-oxo-1-phenylpropyl)-2,3,4,9-tetrahydro-1H-carbazole-1-carboxamide]	70%	77%		
CCCCC1(N(C)C)CCN(CCN(C)Cc2c[nH]c3ccc(Br)cc23)CC1 [Example 154, 1-(2-(((5-bromo-1H-indol-3-yl)methyl)(methyl)amino)ethyl)-4-butyl-N,N-dimethylpiperidin-4-amine]	94%	28%		
CN(C)C1(c2ccccc2)CCN(C(=O)C2CN(Cc3ccc4[nH]ccc4c3)c3ccccc32)CC1 (centres unmarked) [Example 166, (1-((1H-indol-5-yl)methyl)indolin-3-yl)(4-(dimethylamino)-4-phenylpiperidin-1-yl)methanone]	77%	40%		
CN(C)C1(c2cccs2)CCN(C(=O)CNC(=O)c2cccc3c2ccn3C)CC1 [Example 135, N-(2-(4-(dimethylamino)-4-(thiophen-2-yl)piperidin-1-yl)-2-oxoethyl)-1-methyl-1H-indole-4-carboxamide]	61%	27%		
CN(CCN1CCC(c2ccccc2)(N(C)C)CC1)C(=O)C1CCCc2c1[nH]c1ccc(Cl)cc21 (centres unmarked) [Example 127, 6-chloro-N-(2-(4-(dimethylamino)-4-phenylpiperidin-1-yl)ethyl)-N-methyl-2,3,4,9-tetrahydro-1H-carbazole-1-carboxamide]	68%		39%	
CC(C)C(CC(=O)N(C)C(C(=O)N1CCC(c2cccs2)(N(C)C)CC1)c1ccccc1)c1c[nH]c2ccccc12 (centres unmarked) [Example 105, N-(2-(4-(dimethylamino)-4-(thiophen-2-yl)piperidin-1-yl)-2-oxo-1-phenylethyl)-3-(1H-indol-3-yl)-N,4-dimethylpentanamide]	91%	63%		
CN(CCN1CCC(c2ccccc2)(N(C)C)CC1)Cc1ccc2cc[nH]c2c1 [Example 184, 1-(2-(((1H-indol-6-yl)methyl)(methy)amino)ethyl)-N,N-dimethyl-4-phenylpiperidin-4-amine]			95%	99%
CN(C)C1(c2ccccc2)CCN(C(=O)C2CCCN(C(=O)c3c[nH]c4ccccc34)C2)CC1 (centres unmarked) [Example 131, (1-(1H-indole-3-carbonyl)piperidin-3-yl)(4-(dimethylamino)-4-phenylpiperidin-1-yl)methanone]	43%	34%		
CN(CCN1CCC(c2ccccc2)(N(C)C)CC1)C(=O)c1ccc2ccn(C)c2c1 [Example 119, N-(2-(4-(dimethylamino)-4-phenylpiperidin-1-yl)ethyl)-N,1-dimethyl-1H-indole-6-carboxamide]	95%	45%		
CCCCC1(N(C)C)CCN(CCN(C)Cc2c[nH]c3ccccc23)CC1 [Example 138, 1-(2-(((1H-indol-3-yl)methyl)(methyl)amino)ethyl)-4-butyl-N,N-dimethylpiperidin-4-amine]	81%	12%		
CN(C)C1(c2ccccc2)CCN(C(=O)CCNCc2ccc3[nH]ccc3c2)CC1 [Example 142, 3-((1H-indol-5-yl)methylamino)-1-(4-(dimethylamino)-4-phenylpiperidin-1-yl)propan-1-one]	78%	40%		
CN(C)C1(c2cccs2)CCN(CCNC(=O)c2cccc3c2ccn3C)CC1 [Example 10, N-(2-(4-(Dimethylamino)-4-(thiophen-2-yl)piperidin-1-yl)ethyl)-1-methyl-1H-indole-4-carboxamide]	99%	56%		
CN(CCN1CCC(c2ccccc2)(N(C)C)CC1)Cc1cccc2[nH]ccc12 [Example 194, 1-(2-(((1H-indol-4-yl)methyl)(methy)amino)ethyl)-N,N-dimethyl-4-phenylpiperidin-4-amine]			56%	99%
CN(CCN1CCC(c2ccccc2)(N(C)C)CC1)C(=O)c1cc2cc(F)ccc2[nH]1 [Example 16, N-(2-(4-(Dimethylamino)-4-phenylpiperidin-1-yl)ethyl)-5-fluoro-N-methyl-1H-indole-2-carboxamide]	94%	89%		
CN(CCN1CCC(c2ccccc2)(N(C)C)CC1)Cc1c(-c2ccccc2)[nH]c2ccccc12 [Example 71, N,N-Dimethyl-1-(2-(methyl((2-phenyl-1H-indol-3-yl)methyl)amino)ethyl)-4-phenylpipendin-4-amine]	96%	83%		
CN(CCN1CCC(c2ccccc2)(N(C)C)CC1)Cc1c[nH]c2ccc(Br)cc12 [Example 185, 1-(2-(((5-bromo-1H-indol-3-yl)methyl)(methyl)amino)ethyl)-N,N-dimethyl-4-phenylpiperidin-4-amine]	95%	91%		
CN(C)C1(c2cccs2)CCN(CCNCc2ccc3[nH]ccc3c2)CC1 [Example 69, 1-(2-((1H-Indol-5-yl)methylamino)ethyl)-N,N-dimethyl-4-(thiophen-2-yl)piperidin-4-amine]	96%	90%		
CN(C)C1(c2cccs2)CCN(C(=O)CC(NCc2cccc3cc[nH]c23)c2ccccc2)CC1 (centres unmarked) [Example 173, 3-((1H-indol-7-yl)methylamino)-1-(4-(dimethylamino)-4-(thiophen-2-yl)piperidin-1-yl)-3-phenylpropan-1-one]	96%	74%		
CN(C)C1(c2ccccc2)CCN(C(=O)C2CCCN(Cc3ccc4[nH]ccc4c3)C2)CC1 (centres unmarked) [Example 148, (1-((1H-indol-5-yl)methyl)piperidin-3-yl)(4-(dimethylamino)-4-phenylpiperidin-1-yl)methanone]	41%	17%		
CN(C)C1(c2cccs2)CCN(C(=O)CC(NCc2c[nH]c3ccccc23)c2ccccc2)CC1 (centres unmarked) [Example 164, 3-((1H-indol-3-yl)methylamino)-1-(4-(dimethylamino)-4-(thiophen-2-yl)piperidin-1-yl)-3-phenylpropan-1-one]	96%	82%		
CN(C)C1(c2cccs2)CCN(C(=O)CNC(=O)C2CCCc3c2[nH]c2ccc(Cl)cc32)CC1 (centres unmarked) [Example 116, 6-chloro-N-(2-(4-(dimethylamino)-4-(thiophen-2-yl)piperidin-1-yl)-2-oxoethyl)-2,3,4,9-tetrahydro-1H-carbazole-1-carboxamide]	83%	50%		
